The text below walks through data of US20250332264A1, “GhR-BINDING PEPTIDE AND COMPOSITION COMPRISING SAME” (priority 2021, published 2025).

As a reminder, the Kd is the constant that tells how readily two partners part at equilibrium.

Starred links: 1 amine or outer side, 2 acyl side, 3 side chain; linkers in the order of their positions; H or OH if unused. Positions of bridges follow the written chain, without caps; N, C: chain ends. Non-standard residues stand in square brackets, D forms with d. Residues, ends and D or L forms follow the SMILES beside them. Groups on a side chain read outwards from the residue. *: point of attachment. X3 = NC(=O)[C@H](CCCCN*)NC(=O)CC[C@H](NC(=O)CC[C@H](NC(=O)CCCCCCCCCCCCCCC(=O)O)C(=O)O)C(=O)O; X6 = NC(=O)[C@H](CCCCN*)NC(=O)CC[C@H](NC(=O)CC[C@H](NC(=O)CCCCCCCCCCCCCC(=O)O)C(=O)O)C(=O)O; X10 = NC(=O)[C@H](CCCCN*)NC(=O)CC[C@H](NC(=O)CC[C@H](NC(=O)CCCc1ccc(I)cc1)C(=O)O)C(=O)O; Trp(1-CH2CO) = O=C([C@H](Cc1cn(CC(=O)[*:3])c2ccccc12)N[*:1])[*:2]; Trp(5-OMe) = COc1ccc2[nH]cc(C[C@H](N)C(=O)O)c2c1; Butanoyl(4-(4-I-phenyl)) = O=C(CCCc1ccc(I)cc1)*; Trp(5-OH) = N[C@@H](Cc1c[nH]c2ccc(O)cc12)C(=O)O; Phe(4-COOH) = N[C@@H](Cc1ccc(C(=O)O)cc1)C(=O)O; Trp(7-aza) = N[C@@H](Cc1c[nH]c2ncccc12)C(=O)O; Piperazinyl(4-CH2COOH) = O=C(O)CN1CCN(*)CC1; X7 = O=C(O)CN1CCC(N[*:1])(C(=O)[*:2])CC1; γGlu = O=C(O)[C@H](CCC(=O)[*:2])N[*:1]; Ahp(2) = CCCCC[C@H](N)C(=O)O; NMeK = CN[C@@H](CCCCN)C(=O)O; Aib = CC(C)(N)C(=O)O; CO = O=C([*:1])[*:2]

T1 sequence (P10912 with tags, fused parts or gaps limits assumed): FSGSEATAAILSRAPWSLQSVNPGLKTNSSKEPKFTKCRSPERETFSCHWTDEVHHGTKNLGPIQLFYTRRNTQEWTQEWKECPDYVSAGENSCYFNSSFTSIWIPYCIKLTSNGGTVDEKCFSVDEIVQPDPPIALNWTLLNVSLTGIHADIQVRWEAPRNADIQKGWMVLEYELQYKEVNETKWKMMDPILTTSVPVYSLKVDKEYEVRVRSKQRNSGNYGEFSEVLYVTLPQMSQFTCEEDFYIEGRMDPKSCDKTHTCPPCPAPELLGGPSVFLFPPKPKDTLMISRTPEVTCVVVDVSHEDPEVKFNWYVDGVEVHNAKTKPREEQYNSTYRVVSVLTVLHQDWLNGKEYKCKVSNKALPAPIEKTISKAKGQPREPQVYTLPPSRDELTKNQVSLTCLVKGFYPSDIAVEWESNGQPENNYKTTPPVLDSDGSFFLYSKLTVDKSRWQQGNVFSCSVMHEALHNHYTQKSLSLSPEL

One assay deals with Recombinant human GhR-Fc protein (R&D Systems) (human) (UniProt P10912). The assay can be described thus: SPR, Biacore T200, single-cycle kinetics, GhR-Fc immobilised on CM5.
Sequence of Recombinant human GhR-Fc protein (R&D Systems) (human) (P10912 19-264 limits assumed): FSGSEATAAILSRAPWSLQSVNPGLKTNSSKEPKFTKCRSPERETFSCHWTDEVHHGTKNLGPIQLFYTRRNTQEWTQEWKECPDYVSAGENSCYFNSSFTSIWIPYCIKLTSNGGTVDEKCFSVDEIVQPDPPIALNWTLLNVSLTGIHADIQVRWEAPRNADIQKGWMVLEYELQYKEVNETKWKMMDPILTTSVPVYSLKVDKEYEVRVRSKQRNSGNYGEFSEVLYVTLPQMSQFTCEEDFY
Conditions: not given
On the technique in general: SPR reads the build-up and loss of mass on a sensor chip optically.
In the case of {CH2CO}-[Phe(4-COOH)]KVVSN[Trp(1-CH2CO)][Phe(4-COOH)]K[Trp(5-OH)][Aib]VCK([Glu-Glu-Butanoyl(4-(4-I-phenyl))])-NH2 (thioether N-13; lactam 2-7; not fully specified (residue 2)) [GhR_PD_217], the Kd worked out at 1.46 nM.

The next assay concerns the target T1, Recombinant human GhR-Fc protein (Homo sapiens, UniProt P10912).
T1 construct: purchased R&D Systems
Briefly: Binding activity of hGhR binding peptide by surface plasmon resonance (SPR), Biacore T200, single-cycle kinetics. The following applies: human GhR-Fc immobilized on CM5 chip, KD calculated from ka and kd. How it is done:
SPR assay was performed using Biacore T200 (cytiva: Former GE Healthcare). After the equilibration of Series S Sensor Chip CM5 (produced by cytiva: Former GE Healthcare) with Running Buffer (HBS-EP with 1% (v/v) DMSO), an EDC/NHS mixture was injected at a flow rate of 10 μL/min for 7 minutes to thereby activate the functional groups on sensor chip. Recombinant human GhR-Fc protein (R&D Systems) in 10 mM Acetate (pH4.0) was injected immobilized to at a flow rate of 5 μL/min. It took 7 minutes to immobilize the GhR on the substrate surfaces of the sensor chip. Then Ethanolamine was injected at a flow rate of 10 μL/min for 7 minutes. 1M Ethanolamine (aq.) was injected at a flow rate of 10 μL/min for 420 seconds for capping.
Using these Peptide Samples, kinetics of peptides against human GhR-Fc protein were measured. The method adopted for sample measurement was a single-cycle kinetics method. The analysis was conducted using the evaluation software provided with Biacore T200. A DMSO correction curve obtained by solvent correction measurements was applied for the analysis. Kinetics fitting was done on the difference data obtained by subtracting the baseline data from sample measurement data. KD values were calculated based on the association rate constant (ka) and dissociation rate constant (kd).
Furthermore, “obs. m/z [M+2H]2+” indicates the ESI-MS(+) observed value. Unless otherwise specified, this is bivalent ([M+2H]^2+).
For `CCCCC[C@@H]1NC(=O)[C@H](Cc2ccc(C(=O)O)cc2)NC(=O)[C@@H]2Cc3cn(c4ccccc34)CC(=O)NCCCC[C@@H](C(=O)N[C@@H](C(C)C)C(=O)N[C@@H](C(C)C)C(=O)N[C@@H](CO)C(=O)N[C@@H](CC(N)=O)C(=O)N2)N(C)C(=O)[C@H](Cc2ccc(C(=O)O)cc2)NC(=O)CSC[C@@H](C(=O)NCCCC[C@H](NC(=O)CC[C@H](NC(=O)CC[C@H](NC(=O)CCCc2ccc(I)cc2)C(=O)O)C(=O)O)C(N)=O)NC(=O)[C@H](C(C)C)NC(=O)C(C)(C)NC(=O)[C@H](Cc2c[nH]c3ccc(O)cc23)NC1=O` [Compound 6] ({CH2CO}-[Phe(4-COOH)][NMeK]VVSN[Trp(1-CH2CO)][Phe(4-COOH)][Ahp(2)][Trp(5-OH)][Aib]VC-X10; lactam 2-7; thioether N-13), the Kd was 1.82 nM. Turning to `CC(C)[C@@H]1NC(=O)[C@H](C(C)C)NC(=O)[C@@H]2CCCCNC(=O)Cn3cc(c4ccccc43)C[C@H](NC(=O)[C@H](CC(N)=O)NC(=O)[C@H](CO)NC1=O)C(=O)N[C@@H](Cc1ccc(C(=O)O)cc1)C(=O)N[C@@H](CCCCN)C(=O)N[C@@H](Cc1c[nH]c3ccc(O)cc13)C(=O)NC(C)(C)C(=O)N[C@@H](C(C)C)C(=O)N[C@H](C(=O)NCCCC[C@H](NC(=O)CC[C@H](NC(=O)CC[C@H](NC(=O)CCCCCCCCCCCCCC(=O)O)C(=O)O)C(=O)O)C(N)=O)CSCC(=O)N[C@@H](Cc1ccc(C(=O)O)cc1)C(=O)N2C` [Compound 60] ({CH2CO}-[Phe(4-COOH)][NMeK]VVSN[Trp(1-CH2CO)][Phe(4-COOH)]K[Trp(5-OH)][Aib]VC-X6; lactam 2-7; thioether N-13), the Kd was 3.1 nM.

In the case of `COc1ccc2[nH]cc(C[C@@H]3NC(=O)[C@H](CC(N)=O)NC(=O)[C@H](CO)NC(=O)[C@H](C(C)C)NC(=O)[C@H](C(C)C)NC(=O)[C@H](CCCCNC(=O)CC[C@H](NC(=O)CC[C@H](NC(=O)CCCc4ccc(I)cc4)C(=O)O)C(=O)O)N(C)C(=O)[C@H](Cc4ccc(O)cc4)NC(=O)CSC[C@@H](C(=O)NCC(=O)N4CCC[C@H]4C(=O)N[C@H](CO)C(=O)N[C@H](CO)C(=O)N[C@H](CO)C(N)=O)NC(=O)[C@H](C(C)C)NC(=O)C(C)(C)NC(=O)[C@H](Cc4c[nH]c5ccc(O)cc45)NC(=O)[C@H](CCCCNC(=O)N4CCN(CC(=O)O)CC4)NC(=O)[C@H](Cc4ccc(C(=O)O)cc4)NC3=O)c2c1` [Compound 49] ({CH2CO}-Y[NMeK]([γGlu-γGlu-Butanoyl(4-(4-I-phenyl))])VVSN[Trp(5-OMe)][Phe(4-COOH)]K([CO-Piperazinyl(4-CH2COOH)])[Trp(5-OH)][Aib]VCGP[dS][dS][dS]-NH2; thioether N-13), the Kd is 6.31 nM. Consider `CC(C)[C@@H]1NC(=O)[C@H](C(C)C)NC(=O)[C@@H]2CCCCNC(=O)Cn3cc(c4ccccc43)C[C@H](NC(=O)[C@H](CC(N)=O)NC(=O)[C@H](CO)NC1=O)C(=O)N[C@@H](Cc1ccc(C(=O)O)cc1)C(=O)N[C@@H](CCCCN)C(=O)N[C@@H](Cc1c[nH]c3ccc(O)cc13)C(=O)NC1(CCN(CC(=O)O)CC1)C(=O)N[C@@H](C(C)C)C(=O)N[C@H](C(=O)NCCCC[C@H](NC(=O)CC[C@H](NC(=O)CC[C@H](NC(=O)CCCc1ccc(I)cc1)C(=O)O)C(=O)O)C(N)=O)CSCC(=O)N[C@@H](Cc1ccc(C(=O)O)cc1)C(=O)N2C` [Compound 8] ({CH2CO}-[Phe(4-COOH)][NMeK]VVSN[Trp(1-CH2CO)][Phe(4-COOH)]K[Trp(5-OH)][X7]VC-X10; lactam 2-7; thioether N-13), for which the Kd is 2.08 nM. Take `CC(C)[C@@H]1NC(=O)[C@H](C(C)C)NC(=O)[C@@H]2CCCCNC(=O)Cn3cc(c4ccccc43)C[C@H](NC(=O)[C@H](CC(N)=O)NC(=O)[C@H](CO)NC1=O)C(=O)N[C@@H](Cc1ccc(C(=O)O)cc1)C(=O)N[C@@H](CCCCNC(=O)N1CCN(CC(=O)O)CC1)C(=O)N[C@@H](Cc1c[nH]c3ccc(O)cc13)C(=O)NC(C)(C)C(=O)N[C@@H](C(C)C)C(=O)N[C@H](C(=O)NCCCC[C@H](NC(=O)CC[C@H](NC(=O)CC[C@H](NC(=O)CCCCCCCCCCCCCCC(=O)O)C(=O)O)C(=O)O)C(N)=O)CSCC(=O)N[C@@H](Cc1ccc(O)cc1)C(=O)N2C` [Compound 22] ({CH2CO}-Y[NMeK]VVSN[Trp(1-CH2CO)][Phe(4-COOH)]K([CO-Piperazinyl(4-CH2COOH)])[Trp(5-OH)][Aib]VC-X3; lactam 2-7; thioether N-13): the Kd is 11.2 nM. `COc1ccc2[nH]cc(C[C@@H]3NC(=O)[C@H](CC(N)=O)NC(=O)[C@H](CO)NC(=O)[C@H](C(C)C)NC(=O)[C@H](C(C)C)NC(=O)[C@H](CCCCNC(=O)CC[C@H](NC(=O)CCCc4ccc(I)cc4)C(=O)O)N(C)C(=O)[C@H](Cc4ccc(O)cc4)NC(=O)CSC[C@@H](C(=O)NCC(=O)N4CCC[C@H]4C(=O)N[C@H](CO)C(=O)N[C@H](CO)C(=O)N[C@H](CO)C(N)=O)NC(=O)[C@H](C(C)C)NC(=O)C(C)(C)NC(=O)[C@H](Cc4c[nH]c5ccc(O)cc45)NC(=O)[C@H](CCCCNC(=O)N4CCN(CC(=O)O)CC4)NC(=O)[C@H](Cc4ccc(C(=O)O)cc4)NC3=O)c2c1` [Compound 48] ({CH2CO}-Y[NMeK]([γGlu-Butanoyl(4-(4-I-phenyl))])VVSN[Trp(5-OMe)][Phe(4-COOH)]K([CO-Piperazinyl(4-CH2COOH)])[Trp(5-OH)][Aib]VCGP[dS][dS][dS]-NH2; thioether N-13): the Kd was 4.35 nM. For the molecule `CC(C)[C@@H]1NC(=O)[C@H](C(C)C)NC(=O)[C@H](CCCCNC(=O)CC[C@H](NC(=O)CCCc2ccc(I)cc2)C(=O)O)N(C)C(=O)[C@H](Cc2ccc(O)cc2)NC(=O)CSC[C@@H](C(N)=O)NC(=O)[C@H](C(C)C)NC(=O)C(C)(C)NC(=O)[C@H](Cc2c[nH]c3ccc(O)cc23)NC(=O)[C@H](CCCCN)NC(=O)[C@H](Cc2ccc(C(=O)O)cc2)NC(=O)[C@H](Cc2c[nH]c3ncccc23)NC(=O)[C@H](CC(N)=O)NC(=O)[C@H](CO)NC1=O` [Compound 43] ({CH2CO}-Y[NMeK]([γGlu-Butanoyl(4-(4-I-phenyl))])VVSN[Trp(7-aza)][Phe(4-COOH)]K[Trp(5-OH)][Aib]VC-NH2; thioether N-13), the Kd was 3.95 nM. For the molecule `CC(C)[C@@H]1NC(=O)[C@H](C(C)C)NC(=O)[C@@H]2CCCCNC(=O)Cn3cc(c4ccccc43)C[C@H](NC(=O)[C@H](CC(N)=O)NC(=O)[C@H](CO)NC1=O)C(=O)N[C@@H](Cc1ccc(C(=O)O)cc1)C(=O)N[C@@H](CCCCN)C(=O)N[C@@H](Cc1c[nH]c3ccc(O)cc13)C(=O)NC(C)(C)C(=O)N[C@@H](C(C)C)C(=O)N[C@H](C(=O)NCCCC[C@H](NC(=O)CC[C@H](NC(=O)CC[C@H](NC(=O)CCCCCCCCCCCCCCC(=O)O)C(=O)O)C(=O)O)C(N)=O)CSCC(=O)N[C@@H](Cc1ccc(O)cc1)C(=O)N2C` [Compound 24] ({CH2CO}-Y[NMeK]VVSN[Trp(1-CH2CO)][Phe(4-COOH)]K[Trp(5-OH)][Aib]VC-X3; lactam 2-7; thioether N-13), the Kd is 2.59 nM.

In the case of `COc1ccc2[nH]cc(C[C@@H]3NC(=O)[C@H](CC(N)=O)NC(=O)[C@H](CO)NC(=O)[C@H](C(C)C)NC(=O)[C@H](C(C)C)NC(=O)[C@H](CCCCNC(=O)CC[C@H](NC(=O)CC[C@H](NC(=O)CCCc4ccc(I)cc4)C(=O)O)C(=O)O)N(C)C(=O)[C@H](Cc4ccc(O)cc4)NC(=O)CSC[C@@H](C(=O)NCC(=O)N4CCC[C@H]4C(=O)N[C@H](CO)C(=O)N[C@H](CO)C(=O)N[C@H](CO)C(N)=O)NC(=O)[C@H](C(C)C)NC(=O)C4(CCN(CC(=O)O)CC4)NC(=O)[C@H](Cc4c[nH]c5ccc(O)cc45)NC(=O)[C@H](CCCCN)NC(=O)[C@H](Cc4ccc(C(=O)O)cc4)NC3=O)c2c1` [Compound 52] ({CH2CO}-Y[NMeK]([γGlu-γGlu-Butanoyl(4-(4-I-phenyl))])VVSN[Trp(5-OMe)][Phe(4-COOH)]K[Trp(5-OH)][X7]VCGP[dS][dS][dS]-NH2; thioether N-13), the Kd was 5.47 nM. On the same count and under the same terms, next, `CC(C)[C@@H]1NC(=O)[C@H](C(C)C)NC(=O)[C@@H]2CCCCNC(=O)Cn3cc(c4ccccc43)C[C@H](NC(=O)[C@H](CC(N)=O)NC(=O)[C@H](CO)NC1=O)C(=O)N[C@@H](Cc1ccc(C(=O)O)cc1)C(=O)N[C@@H](CCCCN)C(=O)N[C@@H](Cc1c[nH]c3ccc(O)cc13)C(=O)NC(C)(C)C(=O)N[C@@H](C(C)C)C(=O)N[C@H](C(=O)NCCCC[C@H](NC(=O)CC[C@H](NC(=O)CC[C@H](NC(=O)CCCc1ccc(I)cc1)C(=O)O)C(=O)O)C(N)=O)CSCC(=O)N[C@@H](Cc1ccc(C(=O)O)cc1)C(=O)N2C` [Compound 9] ({CH2CO}-[Phe(4-COOH)][NMeK]VVSN[Trp(1-CH2CO)][Phe(4-COOH)]K[Trp(5-OH)][Aib]VC-X10; lactam 2-7; thioether N-13): 1.46 nM.
